Measured values taken from patent US11267825B2 (AICURIS GMBH & CO. KG, priority 2017, dated 2022).
pEC50, pIC50: −log10 of the molar value.

Tests used:
HBV = test: Determination of HBV DNA from the supernatants of HepAD38 cells (anti-HBV activity); type: cell-based, hepatitis B virus; conditions: Hepatitis B virus, 144 h; HBV DNA in HepAD38 supernatant at day 6; read-out: Cell Activity (EC50)
Protocol: Determination of HBV DNA from the Supernatants of HepAD38 Cells
The anti-HBV activity was analysed in the stable transfected cell line HepAD38, which has been described to secrete high levels of HBV virion particles (Ladner et al., 1997). In brief, HepAD38 cells were cultured at 37° C. at 5% CO2 and 95% humidity in 200 μl maintenance medium, which was Dulbecco's modified Eagle's medium/Nutrient Mixture F-12 (Gibco, Karlsruhe), 10% fetal bovine serum (PAN Biotech Aidenbach) supplemented with 50 μg/ml penicillin/streptomycin (Gibco, Karlsruhe), 2 mM L-glutamine (PAN Biotech, Aidenbach), 400 μg/ml G418 (AppliChem, Darmstadt) and 0.3 μg/ml tetracycline. Cells were subcultured once a week in a 1:5 ratio, but were usually not passaged more than ten times. For the assay 60,000 cells were seeded in maintenance medium without any tetracycline into each well of a 96-well plate and treated with serial half-log dilutions of test compound. To minimize edge effects the outer 36 wells of the plate were not used but were filled with assay medium. On each assay plate six wells for the virus control (untreated HepAD38 cells) and six wells for the cell control (HepAD38 cells treated with 0.3 μg/ml tetracycline) were allocated, respectively. In addition, one plate set with reference inhibitors like BAY 41-4109, entecavir, and lamivudine instead of screening compounds were prepared in each experiment. In general, experiments were performed thrice in triplicates. At day 6 HBV DNA from 100 μl filtrated cell culture supernatant (AcroPrep Advance 96 Filter Plate, […] Supor membran, PALL GmbH, Dreieich) was automatically purified on the MagNa Pure LC instrument using the MagNA Pure 96 DNA and Viral NA Small Volume Kit (Roche Diagnostics, Mannheim) according to the instructions of the manufacturer. EC50 values were calculated from relative copy numbers of HBV DNA. In brief, 5 μl of the 100 μl eluate containing HBV DNA were subjected to PCR LC480 Probes Master Kit (Roche) together with 1 μM antisense primer […], 0.5 μM sense primer […], 0.3 μM hybprobes […]-FL and LC640-[…]-PH (TIBMolBiol, Berlin) to a final volume of 12.5 μl. The PCR was performed on the Light Cycler 480 real time system (Roche Diagnostics, Mannheim) using the following protocol: Pre-incubation for 1 min at 95° C., amplification: 40 cycles×(10 sec at 95° C., 50 sec at 60° C., 1 sec at 70° C.), cooling for 10 sec at 40° C. Viral load was quantitated against known standards using HBV plasmid DNA of pCH-9/3091 (Nassal et al., 1990, Cell 63: 1357-1363) and the LightCycler 480 SW 1.5 software (Roche Diagnostics, Mannheim) and EC50 values were calculated using non-linear regression with GraphPad Prism 6 (GraphPad Software Inc., La Jolla, USA).

HBV core protein = HBV core protein (UniProt P03146); type: biochemical; conditions: read-out: Assembly Activity (IC50); BODIPY-FL labelled core protein, assembly started with NaCl, read after 6 min
Chain of HBV core protein (P03146 whole entry, looked up): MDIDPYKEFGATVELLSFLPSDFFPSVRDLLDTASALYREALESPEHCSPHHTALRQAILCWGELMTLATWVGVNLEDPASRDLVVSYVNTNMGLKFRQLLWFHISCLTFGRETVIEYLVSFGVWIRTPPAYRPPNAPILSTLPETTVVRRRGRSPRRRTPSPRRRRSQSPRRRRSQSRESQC
Protocol: Biochemical Capsid Assembly Assay
The screening for assembly effector activity was done based on a fluorescence quenching assay published by Zlotnick et al. (2007). The C-terminal truncated core protein containing 149 amino acids of the N-terminal assembly domain was fused to a unique cysteine residue at position 150 and was expressed in E. coli using the pET expression system (Merck Chemicals, Darmstadt). Purification of core dimer protein was performed using a sequence of size exclusion chromatography steps. In brief, the cell pellet from 1 L BL21 (DE3) Rosetta2 culture expressing the coding sequence of core protein cloned NdeI/XhoI into expression plasmid pET21b was treated for 1 h on ice with a native lysis buffer (Qproteome Bacterial Protein Prep Kit; Qiagen, Hilden). After a centrifugation step the supernatant was precipitated during 2 h stirring on ice with 0.23 g/ml of solid ammonium sulfate. Following further centrifugation the resulting pellet was resolved in buffer A (100 mM Tris, pH 7.5; 100 mM NaCl; 2 mM DTT) and was subsequently loaded onto a buffer A equilibrated CaptoCore 700 column (GE HealthCare, Frankfurt). The column flow through containing the assembled HBV capsid was dialyzed against buffer N (50 mM NaHCO3 pH 9.6; 5 mM DTT) before urea was added to a final concentration of 3M to dissociate the capsid into core dimers for 1.5 h on ice. The protein solution was then loaded onto a 1 L Sephacryl S300 column. After elution with buffer N core dimer containing fractions were identified by SDS-PAGE and subsequently pooled and dialyzed against 50 mM HEPES pH 7.5; 5 mM DTT. To improve the assembly capacity of the purified core dimers a second round of assembly and disassembly starting with the addition of 5 M NaCl and including the size exclusion chromatography steps described above was performed. From the last chromatography step core dimer containing fractions were pooled and stored in aliquots at concentrations between 1.5 to 2.0 mg/ml at −80° C.
Immediately before labelling the core protein was reduced by adding freshly prepared DTT in a final concentration of 20 mM. After 40 min incubation on ice storage buffer and DTT was removed using a Sephadex G-25 column (GE HealthCare, Frankfurt) and 50 mM HEPES, pH 7.5. For labelling 1.6 mg/ml core protein was incubated at 4° C. and darkness overnight with BODIPY-FL maleimide (Invitrogen, Karlsruhe) in a final concentration of 1 mM. After labelling the free dye was removed by an additional desalting step using a Sephadex G-25 column. Labelled core dimers were stored in aliquots at 4° C. In the dimeric state the fluorescence signal of the labelled core protein is high and is quenched during the assembly of the core dimers to high molecular capsid structures. The screening assay was performed in black 384 well microtiter plates in a total assay volume of 10 μl using 50 mM HEPES pH 7.5 and 1.0 to 2.0 μM labelled core protein. Each screening compound was added in 8 different concentrations using a 0.5 log-unit serial dilution starting at a final concentration of 100 μM, 31.6 μM or 10 μM. In any case the DMSO concentration over the entire microtiter plate was 0.5%. The assembly reaction was started by the injection of NaCl to a final concentration of […] which induces the assembly process to approximately 25% of the maximal quenched signal. 6 min after starting the reaction the fluorescence signal was measured using a Clariostar plate reader (BMG Labtech, Ortenberg) with an excitation of 477 nm and an emission of 525 nm. As 100% and 0% assembly control HEPES buffer containing 2.5 M and 0 M NaCl was used. Experiments were performed thrice in triplicates. EC50 values were calculated by non-linear regression analysis using the Graph Pad Prism 6 software (GraphPad Software, La Jolla, USA).

CN1CCC(C(=O)Nc2nc3c(s2)CN(C(=O)c2cc4ccccc4[nH]2)CC3)CC1 [Example 409, N-[5-(1H-indole-2-carbonyl)-4H,5H,6H,7H-[1,3]thiazolo[5,4-c]pyridin-2-yl]-1-methylpiperidine-4-carboxamide] was tested, and the pEC50 (HBV) was over 6.00 and the pIC50 (HBV core protein) was over 5.30.

CC(=O)NNc1nc2c(s1)CN(C(=O)c1cc3ccccc3[nH]1)CC2 [Example 58, N′-[5-(1H-indole-2-carbonyl)-4H,5H,6H,7H-[1,3]thiazolo[5,4-c]pyridin-2-yl]acetohydrazide] was tested, and the pEC50 (HBV) was 5.00 to 6.00 and the pIC50 (HBV core protein) was 5.00 to 5.30.

Molecule O=C(c1cc2ccc(Cl)cc2[nH]1)N1CCc2nc(NCC3(O)CCC3)sc2C1 [Example 331, 1-({[5-(6-chloro-1H-indole-2-carbonyl)-4H,5H,6H,7H-[1,3]thiazolo[5,4-c]pyridin-2-yl]amino}methyl)cyclobutan-1-ol] has a pEC50 (HBV) of over 6.00 and a pIC50 (HBV core protein) of 5.00 to 5.30.

Work on Nc1nc2c(s1)CN(C(=O)c1cc3c(F)c(F)c(F)cc3[nH]1)CC2 [Example 78, 5-(4,5,6-trifluoro-1H-indole-2-carbonyl)-4H,5H,6H,7H-[1,3]thiazolo[5,4-c]pyridin-2-amine] yielded a pEC50 (HBV) of over 6.00 and a pIC50 (HBV core protein) of over 5.30.

For CCc1cc(F)cc2[nH]c(C(=O)N3CCc4nc(NCC5(O)CCC5)sc4C3)cc12 [Example 363, 1-({[5-(4-ethyl-6-fluoro-1H-indole-2-carbonyl)-4H,5H,6H,7H-[1,3]thiazolo[5,4-c]pyridin-2-yl]amino}methyl)cyclobutan-1-ol], the pEC50 (HBV) was over 6.00 and the pIC50 (HBV core protein) was over 5.30.

Work on N#Cc1nc2c(s1)CN(C(=O)c1cc3ccccc3[nH]1)CC2 [Example 203, 5-(1H-indole-2-carbonyl)-4H,5H,6H,7H-[1,3]thiazolo[5,4-c]pyridine-2-carbonitrile] yielded a pEC50 (HBV) of over 4.00 and a pIC50 (HBV core protein) of over 4.00.

For N#Cc1cc(F)cc2[nH]c(C(=O)N3CCc4nc(N)sc4C3)cc12 [Example 77, 2-{2-amino-4H,5H,6H,7H-[1,3]thiazolo[5,4-c]pyridine-5-carbonyl}-6-fluoro-1H-indole-4-carbonitrile], the pEC50 (HBV) was over 6.00 and the pIC50 (HBV core protein) was over 5.30.

O=C(c1cc2c(Cl)cc(F)cc2[nH]1)N1CCc2nc(NC3(CO)CCC3)sc2C1 [Example 223, (1-{[5-(4-chloro-6-fluoro-1H-indole-2-carbonyl)-4H,5H,6H,7H-[1,3]thiazolo[5,4-c]pyridin-2-yl]amino}cyclobutyl)methanol] was tested, and the pEC50 (HBV) was over 6.00 and the pIC50 (HBV core protein) was over 5.30.

Molecule N#CC1(C(=O)Nc2nc3c(s2)CN(C(=O)c2cc4ccccc4[nH]2)CC3)CC1 [Example 336, 1-cyano-N-[5-(1H-indole-2-carbonyl)-4H,5H,6H,7H-[1,3]thiazolo[5,4-c]pyridin-2-yl]cyclopropane-1-carboxamide] has a pEC50 (HBV) of over 6.00 and a pIC50 (HBV core protein) of 5.00 to 5.30.

Work on Nc1nc2c(s1)CN(C(=O)c1cc3ccc(Cl)c(F)c3[nH]1)CC2 [Example 407, 5-(6-chloro-7-fluoro-1H-indole-2-carbonyl)-4H,5H,6H,7H-[1,3]thiazolo[5,4-c]pyridin-2-amine] yielded a pEC50 (HBV) of over 6.00 and a pIC50 (HBV core protein) of over 5.30.

Nc1nc2c(s1)CN(C(=O)c1cc3c(Br)ccc(F)c3[nH]1)CC2 [Example 90, 5-(4-bromo-7-fluoro-1H-indole-2-carbonyl)-4H,5H,6H,7H-[1,3]thiazolo[5,4-c]pyridin-2-amine] was tested, and the pEC50 (HBV) was over 6.00 and the pIC50 (HBV core protein) was over 5.30.

N#Cc1ccc2cc(C(=O)N3CCc4nc(N)sc4C3)[nH]c2c1 [Example 17, 2-{2-amino-4H,5H,6H,7H-[1,3]thiazolo[5,4-c]pyridine-5-carbonyl}-1H-indole-6-carbonitrile] showed a pEC50 (HBV) of 5.00 to 6.00 and a pIC50 (HBV core protein) of over 4.00.

With Cc1nc2c(s1)CN(C(=O)c1cc3c(Cl)ccc(Cl)c3[nH]1)CC2 [Example 186, 4,7-dichloro-2-{2-methyl-4H,5H,6H,7H-[1,3]thiazolo[5,4-c]pyridine-5-carbonyl}-1H-indole] the pEC50 (HBV) was over 4.00 and the pIC50 (HBV core protein) was over 4.00.

O=C(c1cc2c(F)cc(F)c(F)c2[nH]1)N1CCc2nc(NCC3CCOC3)sc2C1 (centres unmarked) [Example 106, 5-(4,6,7-trifluoro-1H-indole-2-carbonyl)-N-[(oxolan-3-yl)methyl]-4H,5H,6H,7H-[1,3]thiazolo[5,4-c]pyridin-2-amine] was tested, and the pEC50 (HBV) was over 6.00 and the pIC50 (HBV core protein) was over 5.30.

CC(=O)N1CCOC(CNc2nc3c(s2)CN(C(=O)c2cc4ccccc4[nH]2)CC3)C1 (centres unmarked) [Example 242, 1-[2-({[5-(1H-indole-2-carbonyl)-4H,5H,6H,7H-[1,3]thiazolo[5,4-c]pyridin-2-yl]amino}methyl)morpholin-4-yl]ethan-1-one] was tested, and the pEC50 (HBV) was over 6.00 and the pIC50 (HBV core protein) was 5.00 to 5.30.

With CCC(C)(C)CC(=O)Nc1nc2c(s1)CN(C(=O)c1cc3ccccc3[nH]1)CC2 [Example 262, N-[5-(1H-indole-2-carbonyl)-4H,5H,6H,7H-[1,3]thiazolo[5,4-c]pyridin-2-yl]-3,3-dimethylpentanamide] the pEC50 (HBV) was over 6.00 and the pIC50 (HBV core protein) was over 4.00.

O=C(c1cc2ccccc2[nH]1)N1CCc2nc(NCC3(O)COC3)sc2C1 [Example 44, 3-({[5-(1H-indole-2-carbonyl)-4H,5H,6H,7H-[1,3]thiazolo[5,4-c]pyridin-2-yl]amino}methyl)oxetan-3-ol] gave a pEC50 (HBV) of over 6.00 and a pIC50 (HBV core protein) of over 5.30.

Molecule O=C(c1cc2ccccc2[nH]1)N1CCc2nc(-c3ncccn3)sc2C1 [Example 202, 2-[2-(pyrimidin-2-yl)-4H,5H,6H,7H-[1,3]thiazolo[5,4-c]pyridine-5-carbonyl]-1H-indole] has a pEC50 (HBV) of 5.00 to 6.00 and a pIC50 (HBV core protein) of 5.00 to 5.30.

Work on CCc1cccc2[nH]c(C(=O)N3CCc4nc(NCC5(O)CCC5)sc4C3)cc12 [Example 338, 1-({[5-(4-ethyl-1H-indole-2-carbonyl)-4H,5H,6H,7H-[1,3]thiazolo[5,4-c]pyridin-2-yl]amino}methyl)cyclobutan-1-ol] yielded a pEC50 (HBV) of over 6.00 and a pIC50 (HBV core protein) of over 5.30.
